Measured values taken from paper PMC7155755, “Binding of the Human 14-3-3 Isoforms to Distinct Sites in the Leucine-Rich Repeat Kinase 2” (Frontiers in Neuroscience, 2020).
Square brackets hold non-standard residues; d marks the D form. Peptide text beside a SMILES is read from it. pS = N[C@@H](COP(=O)(O)O)C(=O)O

Experiments:
Test in all cases: Fluorescence polarization (FP) direct binding assay
human 14-3-3 isoform ϵ = biological target: T1, human 14-3-3 isoform ϵ (Homo sapiens, UniProt P62258); settings: fluorescein-labeled peptide 1 nM, 20 mM MOPS pH 7, 150 mM NaCl, 0.005% CHAPS, bound given in μM, read-out: Binding affinity (KD) toward 14-3-3 isoform ϵ
T1 construct: MBP (cleaved yes); made in house; host or cells: E. coli BL21DE3
T1 sequence (P62258 1-255): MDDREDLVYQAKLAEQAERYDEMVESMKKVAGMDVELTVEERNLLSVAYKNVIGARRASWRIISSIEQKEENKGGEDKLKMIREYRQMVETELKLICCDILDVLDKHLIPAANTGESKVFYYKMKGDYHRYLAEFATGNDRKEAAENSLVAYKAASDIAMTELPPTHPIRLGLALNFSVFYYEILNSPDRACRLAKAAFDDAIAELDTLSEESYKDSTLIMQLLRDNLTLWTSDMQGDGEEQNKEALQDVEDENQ
Outline: (§1)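 Untagged human 14-3-3 isoforms (MBP removed) titrated from ≥5 μM down to picomolar against 1 nM fluorescein-labeled LRRK2-derived peptides, phosphorylated or not, in 20 mM MOPS pH 7, 150 mM NaCl, 0.005% CHAPS. KD from sigmoidal fit of FP (mPol) versus log protein concentration; duplicates, ≥2 independent replicates.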

human 14-3-3 isoform β = biological target: T2, human 14-3-3 isoform β (Homo sapiens, UniProt P31946); settings: fluorescein-labeled peptide 1 nM, 20 mM MOPS pH 7, 150 mM NaCl, 0.005% CHAPS, at least three independent measurements, read-out: Binding affinity (KD) toward 14-3-3 isoform β
T2 construct: MBP (cleaved yes); made in house; host or cells: E. coli BL21DE3
Outline: as §1

human 14-3-3γ = biological target: T3, human 14-3-3γ (Homo sapiens, UniProt P61981); settings: fluorescein-labeled peptide 1 nM, 20 mM MOPS pH 7, 150 mM NaCl, 0.005% CHAPS, at least three independent measurements, read-out: Binding affinity (KD) toward 14-3-3 isoform γ
T3 construct: MBP (cleaved yes); made in house; host or cells: E. coli BL21DE3
T3 sequence (P61981 1-247): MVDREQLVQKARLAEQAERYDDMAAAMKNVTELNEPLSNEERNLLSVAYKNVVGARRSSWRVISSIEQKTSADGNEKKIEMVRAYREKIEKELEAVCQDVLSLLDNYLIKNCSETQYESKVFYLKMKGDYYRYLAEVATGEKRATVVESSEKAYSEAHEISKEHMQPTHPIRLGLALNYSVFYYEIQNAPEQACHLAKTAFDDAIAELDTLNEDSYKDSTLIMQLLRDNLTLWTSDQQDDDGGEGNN
Outline: as §1

human 14-3-3 isoform θ = biological target: T4, human 14-3-3 isoform θ (Homo sapiens, UniProt P27348); settings: fluorescein-labeled peptide 1 nM, 20 mM MOPS pH 7, 150 mM NaCl, 0.005% CHAPS, at least three independent measurements, read-out: Binding affinity (KD) toward 14-3-3 isoform θ
T4 construct: MBP (cleaved yes); made in house; host or cells: E. coli BL21DE3
Outline: as §1

human 14-3-3 isoform ζ = biological target: T5, human 14-3-3 isoform ζ (Homo sapiens, UniProt P63104); settings: fluorescein-labeled peptide 1 nM, 20 mM MOPS pH 7, 150 mM NaCl, 0.005% CHAPS, at least three independent measurements, read-out: Binding affinity (KD) toward 14-3-3 isoform ζ
T5 construct: MBP (cleaved yes); made in house; host or cells: E. coli BL21DE3
Outline: as §1

human 14-3-3 isoform σ = biological target: T6, human 14-3-3 isoform σ (Homo sapiens, UniProt P31947); settings: fluorescein-labeled peptide 1 nM, 20 mM MOPS pH 7, 150 mM NaCl, 0.005% CHAPS, at least three independent measurements, read-out: Binding affinity (KD) toward 14-3-3 isoform σ
T6 construct: MBP (cleaved yes); made in house; host or cells: E. coli BL21DE3
T6 sequence (P31947 1-248): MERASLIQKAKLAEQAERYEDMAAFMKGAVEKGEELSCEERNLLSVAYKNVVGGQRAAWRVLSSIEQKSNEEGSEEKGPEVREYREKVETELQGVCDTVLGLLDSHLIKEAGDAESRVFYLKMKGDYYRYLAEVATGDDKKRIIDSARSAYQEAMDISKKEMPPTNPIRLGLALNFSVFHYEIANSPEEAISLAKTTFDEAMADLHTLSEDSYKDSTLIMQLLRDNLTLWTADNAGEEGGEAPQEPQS
Outline: as §1

human 14-3-3 isoform η = biological target: T7, human 14-3-3 isoform η (Homo sapiens, UniProt Q04917); settings: fluorescein-labeled peptide 1 nM, 20 mM MOPS pH 7, 150 mM NaCl, 0.005% CHAPS, at least three independent measurements, read-out: Binding affinity (KD) toward 14-3-3 isoform η
T7 construct: MBP (cleaved yes); made in house; host or cells: E. coli BL21DE3
Outline: as §1

T4 sequence (P27348 whole entry, canonical isoform): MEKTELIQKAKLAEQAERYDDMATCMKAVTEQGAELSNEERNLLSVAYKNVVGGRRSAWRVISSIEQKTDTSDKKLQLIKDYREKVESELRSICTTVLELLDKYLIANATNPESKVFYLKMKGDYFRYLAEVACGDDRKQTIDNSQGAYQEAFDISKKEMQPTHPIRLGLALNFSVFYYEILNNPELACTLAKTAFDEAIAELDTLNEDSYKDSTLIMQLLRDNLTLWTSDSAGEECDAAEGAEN
T2 sequence (P31946 whole entry, canonical isoform): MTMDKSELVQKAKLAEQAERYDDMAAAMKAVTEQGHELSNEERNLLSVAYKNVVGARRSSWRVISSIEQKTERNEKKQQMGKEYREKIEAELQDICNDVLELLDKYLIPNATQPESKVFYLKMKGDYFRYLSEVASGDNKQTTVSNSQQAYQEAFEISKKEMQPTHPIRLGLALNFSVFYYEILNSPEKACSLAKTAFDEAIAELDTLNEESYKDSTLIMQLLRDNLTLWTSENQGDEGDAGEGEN
T5 sequence (P63104 whole entry, canonical isoform): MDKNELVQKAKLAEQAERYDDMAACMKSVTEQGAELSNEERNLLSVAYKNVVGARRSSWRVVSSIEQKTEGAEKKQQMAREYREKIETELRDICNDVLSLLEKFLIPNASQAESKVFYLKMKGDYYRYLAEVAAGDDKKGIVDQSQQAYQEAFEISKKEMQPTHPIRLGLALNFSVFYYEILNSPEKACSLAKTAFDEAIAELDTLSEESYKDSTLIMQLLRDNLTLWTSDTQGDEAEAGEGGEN
T7 sequence (Q04917 whole entry, canonical isoform): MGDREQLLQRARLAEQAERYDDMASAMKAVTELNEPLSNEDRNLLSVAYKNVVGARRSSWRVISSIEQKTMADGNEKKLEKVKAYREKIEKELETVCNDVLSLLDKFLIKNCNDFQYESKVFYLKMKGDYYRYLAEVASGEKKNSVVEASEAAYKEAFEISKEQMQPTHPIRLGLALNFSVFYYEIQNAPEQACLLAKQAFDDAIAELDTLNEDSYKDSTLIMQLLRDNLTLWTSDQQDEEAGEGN

Which results are given for `CC[C@H](C)[C@H](NC(=O)[C@H](CC(N)=O)NC(=O)[C@H](Cc1ccccc1)NC(=O)[C@@H](N)CC(C)C)C(=O)N[C@@H](CCCCN)C(=O)N[C@@H](C)C(=O)N[C@@H](CCCNC(=N)N)C(=O)N[C@@H](C)C(=O)N[C@@H](CO)C(=O)N[C@@H](COP(=O)(O)O)C(=O)N[C@@H](CO)C(=O)N1CCC[C@H]1C(=O)N[C@H](C(=O)N[C@H](C(=O)N[C@@H](CC(C)C)C(=O)N[C@H](C(=O)NCC(=O)N[C@H](C(=O)O)[C@@H](C)O)C(C)C)[C@@H](C)CC)C(C)C` [pS1444] (H-LFNIKARAS[pS]SPVILVGT-OH)?
Kd (human 14-3-3 isoform ϵ): > 1 µM; Kd (human 14-3-3 isoform β): 183 ± 25 nM; Kd (human 14-3-3γ): 106 ± 4 nM; Kd (human 14-3-3 isoform θ): 195 ± 42 nM; Kd (human 14-3-3 isoform ζ): 476 ± 165 nM; Kd (human 14-3-3 isoform σ): 802 ± 261 nM; Kd (human 14-3-3 isoform η): 85 ± 10 nM
